In US12180187B2, “1-phenyl-5-azinylpyrazolyl-3-oxyalkyl acids and their use for controlling unwanted plant growth” (BAYER AKTIENGESELLSCHAFT, priority 2019, dated 2024):

Key:
SETVI [1] = experiment: Pre-emergence action at 320 g/ha against SETVI; assay type: in vivo, Setaria viridis; settings: visual scoring after about 3 weeks vs untreated controls
Outline: (§1)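 Compounds were sprayed onto soil over sown seeds as emulsions or suspensions with 0.5% additive at a water rate of 600 l/ha. After about 3 weeks in the greenhouse, effect was rated visually as percent (100% = died).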

LOLRI [2] = experiment: Post-emergence action against LOLRI, 1.28 kg/ha; assay type: in vivo, Lolium rigidum; settings: dosage 1280 g/ha, visual rating about 3 weeks after treatment vs untreated controls
Outline: (§2)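 Greenhouse-grown weeds (sandy loam, twin-sown pots) were treated 2–3 weeks post-sowing at one leaf. The spray was an aqueous WP/EC preparation plus 0.5% additive, applied at 600 L/ha. Scoring was visual at ~3 weeks, 0–100% versus untreated controls.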

POAAN [3] = experiment: Post-emergence action against POAAN, 1.28 kg/ha; assay type: in vivo, Poa annua; settings: dosage 1280 g/ha, visual rating about 3 weeks after treatment vs untreated controls
Outline: as §2

ECHCG [4] = experiment: Pre-emergence action against ECHCG, 1280 g/ha; assay type: in vivo, Echinochloa crus-galli; settings: visual scoring after about 3 weeks vs untreated controls, 100% = plants have died, 0% = like control plants
Outline: (§3)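 Percent herbicidal effect, judged by eye relative to untreated pots around 3 weeks after soil-surface treatment. Application: formulated compound in water, 600 L/ha, 0.5% additive, on soil over sown seeds; greenhouse.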

AMARE [5] = experiment: Pre-emergence action at 320 g/ha against AMARE; assay type: in vivo, Amaranthus retroflexus; settings: visual scoring after about 3 weeks vs untreated controls
Outline: as §1

ALOMY [6] = experiment: Post-emergence action against ALOMY, 320 g/ha; assay type: in vivo, Alopecurus myosuroides; settings: dosage 320 g/ha, visual rating about 3 weeks after treatment vs untreated controls (100% = plants died)
Source text: (§4) Accordingly, the compounds of the invention have good herbicidal action against a broad spectrum of weed grasses and broad-leaved weeds and are therefore suitable for controlling unwanted vegetation by the post-emergence method. • b) Seeds of monocotyledonous and dicotyledonous weeds and crop plants are placed in sandy loam in plastic or organic planting pots, covered with soil and cultivated in a greenhouse under controlled growth conditions. 2 to 3 weeks after sowing, the test plants are treated at the one-leaf stage. The compounds of the invention, formulated in the form of wettable powders (WP) or as emulsion concentrates (EC), are then sprayed onto the green parts of the plants as aqueous suspension or emulsion with addition of 0.5% additive at a water application rate of 600 l/ha (converted). After the test plants have been kept in the greenhouse under optimum growth conditions for about 3 weeks, the activity of the preparations is rated visually in comparison to untreated controls. For example, 100% activity=the plants have died, 0% activity=like control plants. Tables 39 to 49 below show the effects of selected compounds of the general formula (I) according to Tables 1 and 2 on various harmful plants and at an application rate corresponding to 320 g/ha, which were obtained by the experimental procedure mentioned above.

VERPE [7] = experiment: Pre-emergence action against VERPE, 1280 g/ha; assay type: in vivo, Veronica persica; settings: scored visually after about 3 weeks vs untreated controls (100% = plants have died)
Outline: as §3

STEME [8] = experiment: Post-emergence action against STEME, 1.28 kg/ha; assay type: in vivo, Stellaria media; settings: dosage 1280 g/ha, visual rating about 3 weeks after treatment vs untreated controls (100% = plants died)
Outline: as §2

POLCO [9] = experiment: Post-emergence action at 320 g/ha against POLCO; assay type: in vivo, Fallopia convolvulus (Polygonum convolvulus); settings: visual rating about 3 weeks after treatment vs untreated controls
Source text: as §4

MATIN [10] = experiment: Pre-emergence action against MATIN, 1280 g/ha; assay type: in vivo, Tripleurospermum inodorum (Matricaria inodora); settings: scored visually after about 3 weeks vs untreated controls (100% = plants have died)
Outline: as §3

DIGSA [11] = experiment: Pre-emergence action at 320 g/ha against DIGSA; assay type: in vivo, Digitaria sanguinalis; settings: visual scoring after about 3 weeks vs untreated controls
Outline: as §1

VERPE [12] = experiment: Pre-emergence action at 320 g/ha against VERPE; assay type: in vivo, Veronica persica; settings: visual scoring after about 3 weeks vs untreated controls
Outline: as §1

POAAN [13] = experiment: Pre-emergence action against POAAN, 1280 g/ha; assay type: in vivo, Poa annua; settings: visual scoring after about 3 weeks vs untreated controls, 100% = plants have died, 0% = like control plants
Outline: as §3

SETVI [14] = experiment: Post-emergence action against SETVI, 1.28 kg/ha; assay type: in vivo, Setaria viridis; settings: dosage 1280 g/ha, visual rating about 3 weeks after treatment vs untreated controls
Outline: as §2

AVEFA [15] = experiment: Post-emergence action at 320 g/ha against AVEFA; assay type: in vivo; settings: visual rating about 3 weeks after treatment vs untreated controls
Source text: as §4

POLCO [16] = experiment: Pre-emergence action at 320 g/ha against POLCO; assay type: in vivo, Fallopia convolvulus (Polygonum convolvulus); settings: visual scoring after about 3 weeks vs untreated controls
Outline: as §1

AMARE [17] = experiment: Post-emergence action at 320 g/ha against AMARE; assay type: in vivo, Amaranthus retroflexus; settings: visual rating about 3 weeks after treatment vs untreated controls
Source text: as §4

VERPE [18] = experiment: Post-emergence action against VERPE, 1.28 kg/ha; assay type: in vivo, Veronica persica; settings: dosage 1280 g/ha, visual rating about 3 weeks after treatment vs untreated controls (100% = plants died)
Outline: as §2

VIOTR [19] = experiment: Pre-emergence action at 320 g/ha against VIOTR; assay type: in vivo, Viola tricolor; settings: dosage 320 g/ha
Outline: as §1

STEME [20] = experiment: Pre-emergence action against STEME, 1280 g/ha; assay type: in vivo, Stellaria media; settings: scored visually after about 3 weeks vs untreated controls (100% = plants have died)
Outline: as §3

AMARE [21] = experiment: Pre-emergence action against AMARE, 1280 g/ha; assay type: in vivo, Amaranthus retroflexus; settings: scored visually after about 3 weeks vs untreated controls (100% = plants have died)
Outline: as §3

LOLRI [22] = experiment: Pre-emergence action against LOLRI, 1280 g/ha; assay type: in vivo, Lolium rigidum; settings: visual scoring after about 3 weeks vs untreated controls, 100% = plants have died, 0% = like control plants
Outline: as §3

AMARE [23] = experiment: Post-emergence action against AMARE, 1.28 kg/ha; assay type: in vivo, Amaranthus retroflexus; settings: dosage 1280 g/ha, visual rating about 3 weeks after treatment vs untreated controls (100% = plants died)
Outline: as §2

VIOTR [24] = experiment: Post-emergence action at 320 g/ha against VIOTR; assay type: in vivo, Viola tricolor; settings: visual rating about 3 weeks after treatment vs untreated controls
Source text: as §4

ALOMY [25] = experiment: Pre-emergence action at 320 g/ha against ALOMY; assay type: in vivo, Alopecurus myosuroides; settings: scored visually after about 3 weeks vs untreated controls (100% = plants have died)
Outline: as §1

ECHCG [26] = experiment: Post-emergence action against ECHCG, 1.28 kg/ha; assay type: in vivo, Echinochloa crus-galli; settings: dosage 1280 g/ha, visual rating about 3 weeks after treatment vs untreated controls
Outline: as §2

MATIN [27] = experiment: Post-emergence action against MATIN, 1.28 kg/ha; assay type: in vivo, Tripleurospermum inodorum (Matricaria inodora); settings: dosage 1280 g/ha, visual rating about 3 weeks after treatment vs untreated controls (100% = plants died)
Outline: as §2

SETVI [28] = experiment: Pre-emergence action against SETVI, 1280 g/ha; assay type: in vivo, Setaria viridis; settings: visual scoring after about 3 weeks vs untreated controls, 100% = plants have died, 0% = like control plants
Outline: as §3

ALOMY [29] = experiment: Pre-emergence action against ALOMY, 1280 g/ha; assay type: in vivo, Alopecurus myosuroides; settings: visual scoring after about 3 weeks vs untreated controls, 100% = plants have died, 0% = like control plants
Outline: as §3

ECHCG [30] = experiment: Post-emergence action at 320 g/ha against ECHCG; assay type: in vivo, Echinochloa crus-galli; settings: dosage 320 g/ha, visual rating about 3 weeks after treatment vs untreated controls (100% = plants died)
Source text: as §4

LOLRI [31] = experiment: Pre-emergence action at 320 g/ha against LOLRI; assay type: in vivo, Lolium rigidum; settings: visual scoring after about 3 weeks vs untreated controls
Outline: as §1

ALOMY [32] = experiment: Post-emergence action against ALOMY, 1.28 kg/ha; assay type: in vivo, Alopecurus myosuroides; settings: dosage 1280 g/ha, visual rating about 3 weeks after treatment vs untreated controls
Outline: as §2

ABUTH = experiment: Post-emergence action against ABUTH, 1.28 kg/ha; assay type: in vivo, Abutilon theophrasti; settings: dosage 1280 g/ha, visual rating about 3 weeks after treatment vs untreated controls (100% = plants died)
Outline: as §2

AVEFA [33] = experiment: Pre-emergence action at 320 g/ha against AVEFA; assay type: in vivo; settings: visual scoring after about 3 weeks vs untreated controls
Outline: as §1

SETVI [34] = experiment: Post-emergence action at 320 g/ha against SETVI; assay type: in vivo, Setaria viridis; settings: visual rating about 3 weeks after treatment vs untreated controls
Source text: as §4

DIGSA [35] = experiment: Post-emergence action against DIGSA, 1.28 kg/ha; assay type: in vivo, Digitaria sanguinalis; settings: dosage 1280 g/ha, visual rating about 3 weeks after treatment vs untreated controls
Outline: as §2

MATIN [36] = experiment: Pre-emergence action at 320 g/ha against MATIN; assay type: in vivo, Tripleurospermum inodorum (Matricaria inodora); settings: visual scoring after about 3 weeks vs untreated controls
Outline: as §1

DIGSA [37] = experiment: Pre-emergence action against DIGSA, 1280 g/ha; assay type: in vivo, Digitaria sanguinalis; settings: visual scoring after about 3 weeks vs untreated controls, 100% = plants have died, 0% = like control plants
Outline: as §3

Row | SMILES | Post-emergence action against LOLRI (LOLRI [2]) [%] | Post-emergence action against POAAN (POAAN [3]) [%] | Pre-emergence action against ECHCG (ECHCG [4]) [%] | Pre-emergence action against AMARE in % (AMARE [5]) [%] | Post-emergence action against ALOMY (ALOMY [6]) [%] | Pre-emergence action against VERPE (VERPE [7]) [%] | Pre-emergence action against MATIN (MATIN [10]) [%] | Pre-emergence action against DIGSA in % (DIGSA [11]) [%] | Pre-emergence action against VERPE in % (VERPE [12]) [%] | Pre-emergence action against POAAN (POAAN [13]) [%] | Post-emergence action against SETVI (SETVI [14]) [%] | Pre-emergence action against POLCO in % (POLCO [16]) [%] | Post-emergence action against VERPE (VERPE [18]) [%] | Pre-emergence action against VIOTR in % (VIOTR [19]) [%] | Pre-emergence action against STEME (STEME [20]) [%] | Pre-emergence action against AMARE (AMARE [21]) [%] | Pre-emergence action against LOLRI (LOLRI [22]) [%] | Post-emergence action against AMARE (AMARE [23]) [%] | Pre-emergence action at 320 g/ha against ALOMY in % (ALOMY [25]) [%] | Post-emergence action against ECHCG (ECHCG [26]) [%] | other results
1 | CCOC(=O)COc1nn(-c2ccccc2F)c(-c2ccnc(F)c2)c1Br [VIII-002] | 100 | 100 | 100 | 100 | 90 | 90 | 100 | 100 | 80 | 100 | 90 | 90 | 90 | 100 | 90 | 100 | 100 | 100 | 90 | 100 | Pre-emergence action against SETVI in % (SETVI [1]): 100%; Post-emergence action against STEME (STEME [8]): 100%; Post-emergence action against POLCO in % (POLCO [9]): 80%; Post-emergence action against AVEFA in % (AVEFA [15]): 90%; Post-emergence action against AMARE in % (AMARE [17]): 80%; Post-emergence action against VIOTR in % (VIOTR [24]): 80%; Post-emergence action against MATIN (MATIN [27]): 90%; Pre-emergence action against SETVI (SETVI [28]): 100%
2 | CCOC(=O)COc1nn(-c2ccccc2C)c(-c2ccc(F)nc2)c1Br [VII-056-a] | 100 | 100 | 100 | 100 | 90 | 100 | 100 | 100 | 100 | 100 | 100 | 90 | 100 | 100 | 100 | 100 | 90 | 100 | 100 | 100 | Pre-emergence action against ALOMY (ALOMY [29]): 90%; Post-emergence action at 320 g/ha against ECHCG in % (ECHCG [30]): 80%; Pre-emergence action against LOLRI in % (LOLRI [31]): 90%; Post-emergence action against ALOMY (ALOMY [32]): 100%; Post-emergence action against ABUTH (ABUTH): 90%; Pre-emergence action against AVEFA in % (AVEFA [33]): 90%; Post-emergence action against SETVI in % (SETVI [34]): 80%; Post-emergence action against DIGSA (DIGSA [35]): 100%; Pre-emergence action against MATIN in % (MATIN [36]): 80%; Pre-emergence action against DIGSA (DIGSA [37]): 100%; Post-emergence action against MATIN (MATIN [27]): 100%; Pre-emergence action against SETVI (SETVI [28]): 100%
